Source: US20040146498A1, “Pharmaceutical combinations” (priority 2001, published 2004)

System: femoral artery thrombosis
Test: Canine femoral artery thrombosis model
Format: in vivo
Conditions: Compound A administered in combination with aspirin (pre-treatment) versus either agent alone; dog; FIG. 1; not statistically significant
Source text: Canine Femoral Artery Thrombosis Model—Compound A and Aspirin Compound A as defined above was used in combination with aspirin in a dog model of femoral artery thrombosis to determine whether combination of a P2T-receptor antagonist and pre-treatment with aspirin would have an improved profile when compared to the effect of either agent used alone.

CCCSc1nc(N[C@@H]2C[C@H]2c2ccc(F)c(F)c2)c2nnn([C@@H]3C[C@H](OCCO)[C@@H](O)[C@H]3O)c2n1 [Compound A]
anti-thrombotic potency (dose (ID50) required to produce 50% inhibition of thrombosis): trend for an increased anti-thrombotic potency
